The text below walks through data of patent US20230256047A1, “METHODS AND COMPOSITIONS FOR THE TREATMENT OF MUSCULAR DYSTROPHY” (STEALTH BIOTHERAPEUTICS INC., priority 2020, published 2023).

Common to all, as to assay type: in vivo
One assay deals with D2-mdx mice. In words: Echocardiography in D2-mdx mouse model. The following applies: treated vs untreated D2-mdx mice; daily IP 1.0 or 5.0 mg/kg for 10-15 weeks. On the procedure:
Animals and Care: The DBA2 (a.k.a. D2-mdx) congenic strain of mdx mouse will be used for these studies. DBA/2J mice will be used as the wildtype control group. Animals will be obtained from appropriate sources (e.g. Jackson Labs). Animals will be housed at a density of up to five males or five females per cage under specific pathogen-free conditions in rooms with a 12-h light/12-h dark cycle at a temperature of 18-23° C. and 40-60% humidity. All experiments involving mice in this study will be performed in accordance with all applicable laws and regulations.
Echocardiography: In order to assess the cardiac function of mice in vivo, echocardiography will be performed on sedated mice. Mice will first be anesthetized (e.g. with 5% isoflurane mixed with 100% oxygen at 1.0 1/min flow) and then maintained under anesthesia (e.g. with 1.5% isoflurane/oxygen flow. Ophthalmic ointment can be placed on the eyes of the animals to prevent drying of the cornea while the mouse was anesthetized and tested. After anesthetic induction, the animals will be placed on a thermostatically controlled heated platform, where anesthesia can be maintained by delivery through a close-fitting facemask. A heating lamp can also be used to keep the heart rate and body temperature constant at physiological status during echocardiography.
During the examination, the animal’s heart rate will be monitored through the use of an electrocardiograph. The mouse’s heart rate and body temperature will be monitored continuously during the scanning. Echocardiography will be performed using an appropriate apparatus (e.g. Vevo770 ultrasound machine (VisualSonics, Toronto, Canada). The 2-D (B-mode), M-mode and Doppler images will be acquired from a modified parasternal long axis view, parasternal short axis view, suprasternal notch view and apical three-chamber view. The heart rate (BPM), fractional shortening, EF, stroke volume and cardiac output will be obtained for cardiac function assessment using measurements from the modified parasternal short axis view in the M-mode. Qualitative and quantitative measurements will be recorded using offline workstation software, and post-imaging analysis will be performed.
Study Design • 1. N=40-60 mice total assigned to following groups • a. Wildtype control - untreated, n=10-15 • b. mdx, vehicle treated, n=10-15 • c. mdx, daily IP elamipretide 1.0 mg/kg, n=10-15 • d. mdx, daily IP elamipretide 5.0 mg/kg, n=10-15 • 2. Dosing to begin at 4-6 weeks of age and continue for 10-15 weeks • a. Weekly retroorbital eye bleeds will be taken to provide serum for biomarker analysis • 3. In-life endpoints • a. Weekly body weight will be taken • b. Measurements of weekly voluntary wheel running will be determined • i. Total distance (m) • ii. Normalized distance (m/kg) • c. Echocardiogram (at least at week 18 & end of study but possibly more often, including possibly bi-monthly). The following parameters will be accessed. • i. Ejection fraction (%) • ii. Fractional shortening (%) • iii. Stroke volume (uL) • iv. Cardiac output (mL) • v. Heart rate (bpm) • 4. Endpoints post-necropsy • a. Serum analysis for creatine kinase • b. Histology of heart and inflammation and fibrosis

The next assay has as its system DMD KO rabbits. Briefly: Body weight and survival in DMD KO rabbit model. The note with it: treated DMD KO rabbits vs untreated control group of DMD KO rabbits; 0.5 to 5 mg/kg once daily i.p., approximately 3-5 months. The text has this: Rabbits: The DMD KO rabbits used in this study will be obtained from the Laboratory Animal Center of Jilin University or prepared as described in Sui et al., Disease Models & Mechanisms 11 (2018). […] New Zealand rabbits (WT) will be used as controls.
Body Weight & Survival Curve: The body weight of age- and sex-matched WT and DMD KO rabbits will be measured biweekly. All data will be expressed as the mean±s.e.m., and a minimum of three individual animals of each genotype will be used in all experiments.
Study Design: At approximately 3-4 weeks of age, rabbits will be administered peptide (or a mixture of peptides) dissolved in sterile saline in dose(s) ranging from 0.5 to 5 mg/kg, once daily via intraperitoneal (i.p.) injection. The control group will be given placebo (sterile saline). Rabbits will be treated daily with peptide (or a mixture of peptides) or saline vehicle control, with treatment lasting approximately 3-5 months. For example, the peptide used could be a peptide of Formula A-1 (i.e. H-D-Arg-2′6′-Dmt-Lys-Phe-NH2). Echocardiograms will be collected monthly until animals are approximately 4-6 months of age or end of life. At the time of death, tissues will be harvested and variables described above will be collected.

In assay [1] the test system is Subjects suspected of having or diagnosed as having DMD or BMD. In words: Treatment of cardiomyopathy in human subjects diagnosed with muscular dystrophy. The following applies: daily subcutaneous 0.5-5.0 mg/kg/day or weekly intravenous 0.05-1.0 mg/kg/hr. for up to 4 hours. On the procedure:
Subjects suspected of having or diagnosed as having DMD or BMD receive daily subcutaneous administration of H-D-Arg-2′6′-Dmt-Lys-Phe-NH2 or H-D-Arg-2′6′-Dmt-Lys-Phe-OH (e.g. with 0.5-5.0 mg/kg/day). Alternatively, subjects suspected of having or diagnosed as having DMD or BMD receive weekly intravenous administration of H-D-Arg-2′6′-Dmt-Lys-Phe-NH2 or H-D-Arg-2′6′-Dmt-Lys-Phe-OH (e.g. with 0.05-1.0 mg/kg/hr. for up to 4 hours). In some cases, the subjects could be co-administered a drug known to increase or correct the production of dystrophin in the subject, such as a phosphorodiamidate morpholino oligomer (PMO) such as Eteplirsen (Exondys 51®), Golodirsen (Vyondys 53™) or Casimersen (Amondys 45™) or a PPMO. Subjects will be regularly evaluated (e.g., weekly, bi-weekly, monthly, etc.) for the presence and/or severity of signs and symptoms of cardiomyopathy associated with DMD or BMD including, but not limited to, impaired left ventricular dynamics, e.g., reduced ejection fraction, reduced shortening fraction, reduced stroke volume, and/or reduced cardiac output, and elevated levels serum biomarkers associated with myocardial fibrosis, such as, e.g., elevated levels of carboxy terminal peptide of procollagen type I (PICP) and/or amino terminal propeptide of procollagen type III. […]

Assay [2] has as its system Subjects suspected of having or diagnosed as having DMD or BMD and taking corticosteroids and/or Eteplirsen, Golodirsen or Casimersen. Briefly: Treatment of cardiomyopathy in human subjects with DMD or BMD taking corticosteroids and/or Eteplirsen, Golodirsen or Casimersen. The note with it: for signs or symptoms of cardiomyopathy associated with DMD or BMD: human subjects taking corticosteroids and/or Eteplirsen, Golodirsen or Casimersen, daily subcutaneous 0.5-5.0 mg/kg/day or weekly intravenous 0.05-1.0 mg/kg/hr. for up to 4 hours; for effect of combination with corticosteroids and/or Eteplirsen, Golodirsen or Casimersen on signs or symptoms of cardiomyopathy: human subjects, compared to peptide alone, or corticosteroids and/or Eteplirsen, Golodirsen or Casimersen alone. On the procedure:
Subjects suspected of having or diagnosed as having DMD or BMD and taking corticosteroids and/or Eteplirsen (Exondys 51®), Golodirsen (Vyondys 53™)or Casimersen (Amondys 45™) are separately, sequentially, or simultaneously subcutaneously administered a daily dose of H-D-Arg-2′6′-Dmt-Lys-Phe-NH2 or H-D-Arg-2′6′-Dmt-Lys-Phe-OH (e.g. with 0.5-5.0 mg/kg/day) or a weekly intravenous administration of H-D-Arg-2′6′-Dmt-Lys-Phe-NH2 or H-D-Arg-2′6′-Dmt-Lys-Phe-OH (e.g. with 0.05-1.0 mg/kg/hr. for up to 4 hours). Subjects will be regularly evaluated (e.g., weekly, bi-weekly, monthly, etc.) for the presence and/or severity of signs and symptoms of cardiomyopathy associated with DMD or BMD including, but not limited to, impaired left ventricular dynamics, e.g., reduced ejection fraction, reduced shortening fraction, reduced stroke volume, and/or reduced cardiac output, and elevated levels serum biomarkers associated with myocardial fibrosis, such as, e.g., elevated levels of carboxy terminal peptide of procollagen type I (PICP) and/or amino terminal propeptide of procollagen type III. Treatments are maintained at least until such a time as one or more signs or symptoms of cardiomyopathy associated with DMD or BMD are ameliorated or eliminated. The study may be conducted in a randomized withdrawal trial (e.g. randomized, double-blind, placebo-controlled withdrawal trial) to assess the impact of the peptide on the subjects followed by the impact of its withdrawal relative to a control group still receiving the peptide.

Square brackets hold non-standard residues; d marks the D form. Peptide text beside a SMILES is read from it. Dmt = Cc1cc(O)cc(C)c1C[C@H](N)C(=O)O; Orn = NCCC[C@H](N)C(=O)O

For `Cc1cc(O)cc(C)c1C[C@H](NC(=O)[C@H](N)CCCNC(=N)N)C(=O)N[C@@H](CCCN)C(=O)N[C@@H](Cc1ccccc1)C(=O)O` [Compound A-6] (H-[dR][Dmt][Orn]F-OH), in the assay with D2-mdx mice, the cardiac output entry is recorded as “higher” and the “fractional shortening (FS)” value is on record as “higher”. For the same molecule, the lifespan entry in the assay with DMD KO rabbits is recorded as “statistically significant increase in lifespan”.

Take `Cc1cc(O)cc(C)c1C[C@H](NC(=O)[C@H](N)CCCNC(=N)N)C(=O)N[C@@H](CCCCN)C(=O)N[C@@H](Cc1ccccc1)C(N)=O` [Compound A-1, H-D-Arg-2′6′-Dmt-Lys-Phe-NH2] (H-[dR][Dmt]KF-NH2): in the assay with D2-mdx mice, the cardiac output result is reported as “higher” and the “fractional shortening (FS)” value is given as “higher”. The “signs or symptoms of cardiomyopathy associated with DMD or BMD” value (“signs or symptoms … with DMD or BMD” for short) in assay [1] is reported as “reduced severity or elimination”. The lifespan result in the assay on DMD KO rabbits is reported as “statistically significant increase in lifespan”. Further, in assay [2], the “signs or symptoms … with DMD or BMD” value is listed as “delayed or reduced severity or elimination” and the “effect of combination with corticosteroids and/or Eteplirsen, Golodirsen or Casimersen on signs or symptoms of cardiomyopathy” value was “synergistic effects”.

With `N=C(N)NCCC[C@@H](N)C(=O)N[C@@H](Cc1ccc(O)cc1)C(=O)N[C@@H](CCCCN)C(=O)N[C@@H](Cc1ccccc1)C(=O)O` [Compound A-8] (H-[dR]YKF-OH), in the assay with D2-mdx mice, the cardiac output entry is reported as “higher” and the “fractional shortening (FS)” value is given as “higher”. In addition, in the assay with DMD KO rabbits, the lifespan entry is “statistically significant increase in lifespan”.

Consider `Cc1cc(O)cc(C)c1C[C@H](NC(=O)[C@H](N)CCCNC(=N)N)C(=O)N[C@@H](CCCNC(=N)N)C(=O)N[C@@H](Cc1ccccc1)C(N)=O` [Compound A-3] (H-[dR][Dmt]RF-NH2), for which, in the assay on D2-mdx mice, the cardiac output result is on record as “higher” and the “fractional shortening (FS)” value is given as “higher”. Further, in the assay on DMD KO rabbits, the lifespan entry is on record as “statistically significant increase in lifespan”.

As to `Cc1cc(O)cc(C)c1C[C@H](NC(=O)[C@H](N)CCCNC(=N)N)C(=O)N[C@@H](CCCCN)C(=O)N[C@@H](Cc1ccccc1)C(=O)O` [Compound A-2, H-D-Arg-2′6′-Dmt-Lys-Phe-OH] (H-[dR][Dmt]KF-OH), in the assay on D2-mdx mice, the cardiac output entry is “higher” and the “fractional shortening (FS)” value was “higher”. For the same molecule, the “signs or symptoms … with DMD or BMD” value in assay [1] was “reduced severity or elimination”. For the same molecule, in the assay on DMD KO rabbits, the lifespan result was “statistically significant increase in lifespan”. Besides, in assay [2], the “signs or symptoms … with DMD or BMD” value is given as “delayed or reduced severity or elimination” and the “effect of combination with corticosteroids and/or Eteplirsen, Golodirsen or Casimersen on signs or symptoms of cardiomyopathy” value is on record as “synergistic effects”.

On to `N=C(N)NCCC[C@@H](N)C(=O)N[C@@H](Cc1ccc(O)cc1)C(=O)N[C@@H](CCCCN)C(=O)N[C@@H](Cc1ccccc1)C(N)=O` [Compound A-7] (H-[dR]YKF-NH2), for which, in the assay on D2-mdx mice, the cardiac output result is “higher” and the “fractional shortening (FS)” value is on record as “higher”. For the same molecule, the lifespan entry in the assay with DMD KO rabbits is listed as “statistically significant increase in lifespan”.

With `Cc1cc(O)cc(C)c1C[C@H](NC(=O)[C@H](N)CCCNC(=N)N)C(=O)N[C@@H](CCCN)C(=O)N[C@@H](Cc1ccccc1)C(N)=O` [Compound A-5] (H-[dR][Dmt][Orn]F-NH2), in the assay on D2-mdx mice, the cardiac output result is listed as “higher” and the “fractional shortening (FS)” value was “higher”. Further, in the assay with DMD KO rabbits, the lifespan entry is recorded as “statistically significant increase in lifespan”.

Take `Cc1cc(O)cc(C)c1C[C@H](NC(=O)[C@H](N)CCCNC(=N)N)C(=O)N[C@@H](CCCNC(=N)N)C(=O)N[C@@H](Cc1ccccc1)C(=O)O` [Compound A-4] (H-[dR][Dmt]RF-OH): in the assay on D2-mdx mice, the cardiac output entry is “higher” and the “fractional shortening (FS)” value was “higher”. Besides, the lifespan result with DMD KO rabbits was “statistically significant increase in lifespan”.
